# Measured values as given in patent publication US10485844B2, “Methods for treating severe atopic dermatitis by administering an IL-4R inhibitor” (Regeneron Pharmaceuticals, Inc., priority 2016, dated 2019).
# Entries after “also recorded” stand apart in the source; their conditions may differ. Like-named read-outs stand apart in the source and are kept apart here. Marks after values point to notes of the source that are not given here.
# Experiments:
# [1] = Phase 2a pediatric study: pharmacokinetic profile of dupilumab; type: in vivo, human; settings: pediatric patients with AD, compared with adults
# Experimental: The study consisted of a screening period (day −35 to day −1), a baseline visit, Part A (including a single-dose treatment followed by an 8-week semi-dense PK sampling period), and Part B (including a 4-week repeat-dose treatment period [4 weekly doses] followed by an 8-week follow-up period).
# Safety and tolerability was assessed by vital signs, physical examinations, clinical laboratory tests, and clinical evaluations. Patients were asked to monitor all adverse events (AEs) experienced from the time of informed consent/assent until their last study visit. Serum samples were collected for assay of dupilumab levels, and PK parameters were calculated using the dupilumab concentration data. Serum samples were collected for assay of ADA, and exploratory analyses. Efficacy was assessed during the study at specified clinic visits using the Pruritus NRS, SCORAD, and EASI that measure the extent and severity of AD, and the IGA that rates the overall severity of AD.
# [2] = test system: patients with moderate-to-severe AD; test: Pooled subgroup analysis of two 16-week phase 3 dupilumab monotherapy trials by CsA eligibility / CsA history; type: in vivo, human; settings: for Patients achieving EASI 75, n (%) / Patients achieving IGA 0-1, n (%) / bacterial conjunctivitis rate / conjunctivitis rate: 16 weeks; for Patients achieving a ≥4-point improvement in peak pruritus NRS, n/N1 (%): baseline NRS ≥4
# Experimental: Pts (N=1379) with moderate-to-severe AD whose disease was not adequately controlled by topical medications or for whom topical treatment is medically inadvisable were randomized to receive subcutaneous injections of placebo (PBO) or dupilumab 300 mg every 2 weeks (q2w) or weekly (qw) for 16 weeks.
# Subset A pts had, on average, more severe disease than subset B pts, as assessed by Eczema Area and Severity Index (EASI; mean baseline±SD EASI score 37.2±14.69 vs 32.0±13.29; nominal p<0.0001).
# [3] = Functional dupilumab concentrations in serum, two 16-week phase 3 monotherapy studies; type: in vivo, human; settings: for mean functional concentration of dupilumab in serum: monotherapy
# Experimental: The studies were multicenter, randomized, double-blind, placebo-controlled studies of subcutaneously administered dupilumab in 1379 adult patients; each had duration of 16 weeks (NCT02277743 and NCT02277769). Patients were randomized 1:1:1 to placebo, dupilumab 300 mg every week (qw), and dupilumab 300 mg every 2 weeks (q2w); patients randomized to dupilumab received a loading dose of 600 mg. Presented here are functional dupilumab concentrations measured in serum from blood samples at various pharmacokinetic time-points and analyzed using descriptive statistics.
# CYP3A = test: Effect of dupilumab on PK of CYP substrate cocktail: midazolam; settings: 600 mg loading dose, then 300 mg weekly
# Experimental: (§1) Subcutaneous dupilumab was administered as a 600 mg loading dose on Day 8, followed by a weekly dose of 300 mg from Day 15 to Day 50. PK parameters included Geometric Mean Ratios (GMR) of AUClast (area under the plasma concentration-time curve from time zero to the time of the last quantifiable concentration) and Cmax (maximum observed plasma concentration) measured at Day 1 and Day 36, while efficacy assessments included changes in Eczema Area and Severity Index (EASI) scores (scale 0-72).
# [4] = test system: adults with moderate-to-severe AD; settings: for decrease in mean EASI (SD) score: 600 mg on Day 8, then 300 mg weekly
# Experimental: as §1
# [5] = test system: adult patients with severe AD; test: 16-week randomized placebo-controlled trial of dupilumab + TCS in adults with severe AD not adequately controlled with or intolerant to cyclosporine A (efficacy and safety);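 further: subcutaneous dosing after a 600 mg loading dose on day 1, with standardized medium-potency TCS background from day −14, compared against matching injectable placebo arm, 1:1:1 randomization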
# Source text: The study comprises a 2-week screening period, a 2-week medium-potency TCS standardization period, a 16-week treatment period, and a 12-week safety follow up period. […] All patients receive concomitant medium-potency TCS as background concomitant therapy to reflect standard of care treatment of this severe population.
# Starting on day −14, all patients initiate a standardized TCS treatment regimen, and continue the standardized medium-potency regimen through the end of the treatment period (week 16). During the 12-week follow-up period, they may continue to receive TCS at the discretion of the investigator, for intolerable AD disease activity.
# Patients who continue to meet eligibility criteria at baseline (day 1) undergo assessments and are randomized in a 1:1:1 ratio to receive either once-weekly (qw) or every 2 week (q2w) subcutaneous (SC) injections of 300 mg dupilumab (following an SC loading dose of 600 mg on day 1), or matching injectable placebo, including the placebo for the loading dose. During weeks in which dupilumab is not administered (in the q2w regimen), patients receive injectable placebo.
# Patients receive either qw SC injections of 300 mg dupilumab (following a loading dose of 600 mg on day 1), or q2w SC injections of 300 mg dupilumab (following a loading dose of 600 mg on day 1) during the 16-week treatment period. During weeks in which dupilumab is not administered (in the q2w regimen), patients receive injectable placebo.
# The primary endpoint in the study is: the proportion of patients with Eczema Area and Severity Index (EASI) 75 (≥75% improvement from baseline) at week 16.
# ⋅ Proportion of patients with EASI 75 (75% improvement from baseline) at week 16 for patients with prior CSA use; ⋅ Proportion of patients with IGA 0 or 1 (on a 5-point scale) and a reduction from baseline of points at week 16; ⋅ Percent change from baseline to week 16 in the pruritus numerical rating scale (NRS); ⋅ Proportion of patients with improvement (reduction) of pruritus NRS at week 16; ⋅ Percent change from baseline to week 16 in the EASI score; ⋅ Change from baseline to week 16 in percent body surface area (BSA); ⋅ Percent change from baseline to week 16 in the SCORing Atopic Dermatitis (SCORAD); ⋅ Proportion of patients with SCORAD 50 (≥50% improvement from baseline) at week 16; ⋅ Percent change from baseline to week 16 in the Global Individual Signs Score (GISS) (erythema, infiltration/papulation, excoriations, lichenification); ⋅ Change from baseline to week 16 in the Dermatology Life Quality Index (DLQI); ⋅ Change from baseline to week 16 in the Patient Oriented Eczema Measure (POEM); ⋅ Change from baseline to week 16 in the Hospital Anxiety and Depression Scale (HADS); ⋅ Percent change from baseline to week 2 in the pruritus NRS; ⋅ Mean weekly dose of TCS through week 16
# A variety of parameters are collected during the study to assess efficacy/effectiveness of dupilumab including measures of AD severity, use of concomitant treatment for AD, and patient reported measures of AD symptoms and QOL. Efficacy is assessed using pruritus NRS, pruritus categorical scale, POEM, HADS, DLQI, the European Quality of Life-5 Dimensions (EQ-5D), Patient Global Assessment of Disease, Patient Global Assessment of Treatment, Asthma Control Questionnaire (ACQ-5), the Sino-Nasal Outcome Test (SNOT-22), assessment of sick leave/missed school days, IGA, EASI, BSA of involvement of AD, GISS and SCORAD.
# [6] = CSA-eligible subset, Dupilumab 300 mg Q2W
# [7] = CSA-eligible subset, Dupilumab 300 mg QW
# [8] = CSA-ineligible subset, Dupilumab 300 mg Q2W
# [9] = CSA-ineligible subset, Dupilumab 300 mg QW
# [10] = 300 mg dupilumab q2w + TCS (N = 107), 16-week treatment period
substance,measurement,setting,value
"dupilumab: fully human anti-IL-4R antibody; heavy chain SEQ ID NO: 9, light chain SEQ ID NO: 10",pharmacokinetic profile,[1],consistent with adults
same,"Patients achieving EASI 75, n (%)","[2]; CSA-eligible subset, Dupilumab 300 mg Q2W (N = 353)",(49.9) %
same,"Patients achieving IGA 0-1, n (%)",[2]; [6],(38.8) %
same,"Patients achieving a ≥4-point improvement in peak pruritus NRS, n/N1 (%)",[2]; [6],(39.7) %
same,"Patients achieving EASI 75, n (%)","[2]; CSA-eligible subset, Dupilumab 300 mg QW (N = 366)",(54.1) %
same,"Patients achieving IGA 0-1, n (%)",[2]; [7],(39.1) %
same,"Patients achieving a ≥4-point improvement in peak pruritus NRS, n/N1 (%)",[2]; [7],(40.5) %
same,"Patients achieving EASI 75, n (%)","[2]; CSA-ineligible subset, Dupilumab 300 mg Q2W (N = 104)",(40.4) %
same,"Patients achieving IGA 0-1, n (%)",[2]; [8],(30.8) %
same,"Patients achieving a ≥4-point improvement in peak pruritus NRS, n/N1 (%)",[2]; [8],(33.7) %
same,"Patients achieving EASI 75, n (%)","[2]; CSA-ineligible subset, Dupilumab 300 mg QW (N = 96)",(35.4) %
same,"Patients achieving IGA 0-1, n (%)",[2]; [9],(28.1) %
same,"Patients achieving a ≥4-point improvement in peak pruritus NRS, n/N1 (%)",[2]; [9],(36.3) %
same,bacterial conjunctivitis rate,"[2]; CsA-eligible, dupilumab q2w",0.6%
same,conjunctivitis rate,"[2]; CsA-eligible, dupilumab q2w",5%
same,bacterial conjunctivitis rate,"[2]; CsA-eligible, dupilumab qw",1.1%
same,conjunctivitis rate,"[2]; CsA-eligible, dupilumab qw",3.3%
same,bacterial conjunctivitis rate,"[2]; CsA-ineligible, dupilumab q2w",3.8%
same,conjunctivitis rate,"[2]; CsA-ineligible, dupilumab q2w",1.9%
same,bacterial conjunctivitis rate,"[2]; CsA-ineligible, dupilumab qw",4.2%
same,conjunctivitis rate,"[2]; CsA-ineligible, dupilumab qw",4.2%
same,"Patients achieving EASI 75, n (%)","[2]; Subset A (inadequate response or intolerance to CsA), Dupilumab 300 mg Q2W (N = 94)",(38.3) %
same,"Patients achieving IGA 0-1, n (%)","[2]; Subset A, Dupilumab 300 mg Q2W",(29.8) %
same,"Patients achieving a ≥4-point improvement in peak pruritus NRS, n/N1 (%)","[2]; Subset A, Dupilumab 300 mg Q2W",(33.7) %
same,"Patients achieving EASI 75, n (%)","[2]; Subset A, Dupilumab 300 mg QW (N = 83)",(34.9) %
same,"Patients achieving IGA 0-1, n (%)","[2]; Subset A, Dupilumab 300 mg QW",(27.7) %
same,"Patients achieving a ≥4-point improvement in peak pruritus NRS, n/N1 (%)","[2]; Subset A, Dupilumab 300 mg QW",(34.1) %
same,"Patients achieving EASI 75, n (%)","[2]; Subset B (remaining study population), Dupilumab 300 mg Q2W (N = 363)",(50.1) %
same,"Patients achieving IGA 0-1, n (%)","[2]; Subset B, Dupilumab 300 mg Q2W",(38.8) %
same,"Patients achieving a ≥4-point improvement in peak pruritus NRS, n/N1 (%)","[2]; Subset B, Dupilumab 300 mg Q2W",(39.5) %
same,"Patients achieving EASI 75, n (%)","[2]; Subset B, Dupilumab 300 mg QW (N = 379)",(53.6) %
same,"Patients achieving IGA 0-1, n (%)","[2]; Subset B, Dupilumab 300 mg QW",(38.8) %
same,"Patients achieving a ≥4-point improvement in peak pruritus NRS, n/N1 (%)","[2]; Subset B, Dupilumab 300 mg QW",(40.9) %
same,ratio (qw:q2w) of mean functional concentrations,[3]; Week 16,2.4
same,mean functional concentration of dupilumab in serum,"[3]; dupilumab 300 q2w (600 mg loading dose), Week 16",~75 mg/L
same,mean functional concentration of dupilumab in serum,"[3]; dupilumab 300 qw (600 mg loading dose), Week 16",180 mg/L
same,share of the Week 12 Ctrough reached by Week 4,"[3]; q2w dose, 600 mg loading dose",~80%
same,share of the Week 12 Ctrough reached by Week 4,[3]; qw dose,~67%
same,effect of dupilumab on the PK of midazolam / activity of CYP3A,CYP3A,no meaningful effect; also recorded: does not have a meaningful effect
same,decrease in mean EASI (SD) score,[4]; Day 35,59.3% (37.6)
same,decrease in mean EASI (SD) score,[4]; Day 50,87.2% (13.4)
same,patients with at least one adverse event (AE),[4]; in vivo,3 patients
same,serious AE leading to treatment discontinuation (systemic inflammatory response syndrome),[4]; in vivo,1
same,"DLQI score, mean change from baseline to Week 16 (±SE)",[5]; 300 mg dupilumab q2w + TCS,−9.7 (0.64)***^
same,DLQI score: Proportion of Patients with ≥4-point improvement at Week 16,[5]; 300 mg dupilumab q2w + TCS,85 (79.4)*** %
same,"POEM score, mean change from baseline to Week 16 (±SE)",[5]; 300 mg dupilumab q2w + TCS,−11.7 (0.68)***
same,POEM score: Proportion of patients with ≥4-point improvement at Week 16,[5]; 300 mg dupilumab q2w + TCS,89 (83.2)*** %
same,Proportion of patients with DLQI 0 or 1 at Week 16,[5]; 300 mg dupilumab q2w + TCS,32 (29.9)** %
same,"Atopic dermatitis (AE), n (%)",[5]; [10],(7.5) %
same,"Conjunctivitis allergic, n (%)",[5]; [10],(15.0) %
same,"Conjunctivitis, n (%)",[5]; [10],(11.2) %
same,"Headache, n (%)",[5]; [10],(9.3) %
same,"Nasopharyngitis, n (%)",[5]; [10],(20.6) %
same,"Number of patients with TEAEs, n (%)",[5]; [10],(72.0) %
